Results on three molecules are retold here after EP0091090A2, “Bipyridine substituted imidazolidene copper complex and its use in food-producing animals, and bipyridine, 2,2'-(2-imidazolidinylidene) di-copper complex and use in animals” (INTERNATIONAL MINERALS & CHEMICAL CORPORATION, priority 1982, dated 1983).

“And” between values parts separate entries of the source, which are not always exact repeats. Identical values can stand only once. Like-named read-outs stand apart in the source and are kept apart here.

The subject of test [1] is rumen fluid batch culture. As to the kind of experiment: Rumen fluid batch culture test: volatile fatty acid, gas (CH4 + H2), protein and amino acid accumulation (Example 2). It is filed as cell-based, steers. As for the experimental part:
The above Formula IV composition was tested to determine its effectiveness as a feed additive for ruminants. The initial tests were in rumen fluid batch culture systems to determine the effect of the compound on volatile fatty acid/methane ratios (VFA/CH4). […] Test Procedure: A 50/50 mixture of ground corn and ground alfalfa was used as the substrate for the subject rumen fluid batch culture test. The compound (Formula IV ) was present in the rumen fluid in three separate test samples at 8.33, 25 and 75 ppm, respectively. On day 1, rumen fluid was obtained from mature fistulated steers on 50/50 concentrate/roughage diets. The rumen fluid (RF) was strained through three layers of gauze cloth and equilibrated with C02 gas. Wheaton serum vials (125 ml) were prepared ahead with 20 ml continuous batch buffer and 100 mg 50/50 ground corn/ground alfalfa. Controls and compounds (dissolved in acetone) were set up according to desired levels. The vials were kept under C02 gas until 20 ml of the strained RF was added. The vials were sealed and incubated at 39°C for 24 hours in a hot water bath. On successive days, gas samples (0.1 ml) were drawn for gas chromatography analysis before transferring 20 ml of the batch culture to another vial containing 20 ml of buffer, 100 mg substrate, and the corresponding compound. The remaining 20 ml was inoculated with 2 ml 6N HC1 and centrifuged at 15,000 rpm for 15 minutes. Ether extracts were prepared for volatile fatty acid (VFA) analysis. Some minor adjustments were made in the termperatures on the Hewlett-Packard 5750 Gas-Liquid Chromatograph used for VFA analysis when the glass column used was changed from 1/4 inch diameter to 1/8 inch diameter. Injection Port = 220°C Column Oven = 170°C Flame Detector = 250°C Only 4 minutes was needed to record the sample instead of the previous 7 minutes.

Test [2] relates to rumen microflora. Kind of test: Batch culture assay for the degradation of starch (Example 3). It counts as cell-based, steers. An excerpt: The subject Formula ^IV compound was also compared to monensin in another rumen fluid batch culture test as set forth below. The test was designed to screen compounds for inhibition of starch breakdown by the rumen microflora. […] It is considered more desirable to avoid degradation of starch in the rumen so that it is passed on into the abomasum where it can be digested more efficiently. […] Test Procedure: Animals - Mature fistulated steers were maintained on concentrate, roughage, or concentrate/ roughage (50/50) rations. Animals were fed twice daily at 8:00 A.M. and 4:00 P.M.
Culture Assays - Approximately two liters of rumen fluid were collected from fistulated animals with the use of a hand pump. The rumen fluid, collected in a stoppered flask, was then immediately taken to the laboratory for processing. Samples were taken at 8:00 A.M. just prior to the first feeding or at 1:00 P.M. (ca. 4-5 hours after the first feeding). Rumen fluid was strained through six layers of cotton gauze cloth into a flask that was flushed with C02 gas. The filtrate was centrifuged for 5 minutes at 100 rpm in a Sorvall centrifuge to remove large particulate material. The supernatant was again passed through six layers of gauze into a flask under C02 gas and stoppered.
Batch Culture Assay for the Degradation of Starch - Twenty-five ml of rumen fluid prepared as above was added to serum vials (Wheaton Glass, 100 ml capacity) containing 0.25-1.00% final concentration starch as an energy substrate in 25 ml batch culture assay buffer. The serum vials were sealed under C02 gas phase, and incubations were carried out for 20-24 hours at 39°C on a New Brunswick rotary shaker (250 rpm). Each experimental vial was done in triplicate. The corn starch used in degradation experiments was previously washed with distilled water several times, filtered through an 8 micron (47 mm) Millipore filter, and dried at 90°C for 24 hours.
At intervals of 0 and 24 hours, the entire contents in vials were centrifuged at 250 rpm for 5 minutes. The supernatants were carefully removed with a pipet and the remaining "starch pellets" resuspended in water and passed through borosilicate glass microfiber prefilters (Millipore AP 20-047-00). Filters were dried in an oven for 24 hours at 90°C, cooled and then weighed. The amount of starch remaining after 24 hours' incubation was compared with the amount present at 0 hours and the per cent of substrate degraded calculated.

Test [3] deals with rumen fluid batch culture. Kind of test: Batch rumen VFA and gas production screen (Example 8). It is filed as cell-based, steers. As for the experimental part:
The above Formula II composition was tested to determine its effectiveness as a feed additive for ruminants. The initial tests were in rumen fluid batch culture systems to determine the effect of the compound on volatile fatty acid/methane ratios (VFA/CH4).
A 50/50.mixture of ground corn and ground alfalfa was used as the substrate for the subject rumen fluid batch culture test. The compound (Formula II) was present in the rumen fluid at 75 ppm.
On day 1, rumen fluid was obtained from mature fistulated steers on 50/50 concentrate/roughage diets. The rumen fluid (RF) was strained through three layers of gauze cloth and equilibrated with C02 gas. Wheaton serum vials (125 ml) were prepared ahead with 20 ml continuous batch buffer and 100 mg 50/50 ground corn/ground alfalfa. Controls and compounds (dissolved in acetone) were set up according to indicated levels. The vials were kept under C02 gas until 20 ml of the strained RF was added. The vials were sealed and incubated at 39°C for 24 hours in a hot water bath. On successive days, gas samples (0.1 ml) were drawn for gas chromatography analysis before transferring 20 ml of the batch culture to another vial containing 20 ml of buffer, 100 mg substrate, and the corresponding compound. The remaining 20 ml was inoculated with 2 ml 6N HCl and centrifuged at 15,000 rpm for 15 minutes. Ether extracts were prepared for volatile fatty acid (VFA) analysis. Some minor adjustments were made in the temperatures on the Hewlett-Packard 5750 Gas-Liquid Chromatograph used for VFA analysis when the glass column used was changed from 1/2 inch diameter to 1J8 inch diameter.
About 4 minutes was needed to record the sample.
In the above tests, four control groups were run and the mean established.

A short description of test [4]: Chick rye diet test system (Example 6). It counts as in vivo. Conditions: compared to positive control (penicillin or bacitracin). An excerpt: The Formula III compound can be tested in a chick rye diet test system. […] Useful antibiotics for the positive control comparison are penicillin or bacitracin.
The mark [5] stands for this setting: 75 ppm, single runs of duplicate.

On to `CC[C@@]1([C@@H]2O[C@@H]([C@H]3O[C@@](O)(CO)[C@H](C)C[C@@H]3C)C[C@@H]2C)CC[C@H]([C@]2(C)CC[C@]3(C[C@H](O)[C@@H](C)[C@@H]([C@@H](C)[C@@H](OC)[C@H](C)C(=O)O)O3)O2)O1` [Monensin, reference compound], for which, in test [1], the AA was 0.51 µmol/mL and 0.28 µmol/mL and 0.29 µmol/mL and 0.34 µmol/mL and 0.30 µmol/mL and 0.44 µmol/mL; the “CH4 produced on Day 10” value is on record as 49; the “Caloric Value of CH4” value is 10.33; the “Caloric Value of H2” value came to 0. In test [1], the “Caloric Value of HAc” value amounted to 105.04, the “Caloric Value of HBu” value is recorded as 50.34, the “Caloric Value of HFo” value worked out at 0.98 and the “Caloric Value of HPr” value is on record as 180.46. In test [1], the “Caloric Value of HiBu” value is 5.11; the “Caloric Value of HiVal” value stood at 2.17; the “Caloric Value, Total (VFA's)” value is 344.10; the “Gross Cal Remaining in Feed” value came out at 364.76 cal. In addition, in test [1], the H2 came to 0 µ Moles, the “H2 produced on Day 10” value is listed as 0, the “HAc (acetate) produced on Day 10” value was 501.6 and the “HBu (butyrate) produced on Day 10” value turned out to be 96.8. Further, in test [1], the “HFo (formate) produced on Day 10” value came to 15.60, the “HPr (propionate) produced on Day 10” value turned out to be 494.4, the “HiBu (isobutyrate) produced on Day 10” value is on record as 14.0 and the “HiVal (isovalerate) produced on Day 10” value came out at 3.2. Moreover, the “Total VFA's produced on Day 10” value in test [1] was 1,125.6. Besides, in test [2], the “effect on starch fermentation” value is recorded as “neither monensin or lasalocid had any effect”. In test [3], the Acetate was 7.2 Mu Moles/ml and 5.6 Mu Moles/ml; the “Acetate, Mean” value worked out at 6.4 Mu Moles/ml; the Butyrate was 7.8 Mu Moles/ml and 7.9 Mu Moles/ml; the “Butyrate, Mean” value is 7.6 Mu Moles/ml. Besides, in test [3], the “CH4 (%)” value is 5.6% and 6.2%; the “CH4 (%), Average” value worked out at 5.8%; the “CH4, Percent Change” value is listed as -49.4%; the “H2 (%)” value was found to be 0.0%. In addition, in test [3], the “H2 (%), Average” value is given as 0.0%; the Propionic is 20.7 Mu Moles/ml and 18.7 Mu Moles/ml; the “Propionic, Mean” value is 19.7 Mu Moles/ml; the Total turned out to be 32.2 Mu Moles/ml. In test [3], the “Total, Mean” value came out at 38.8 Mu Moles/ml.
With `CC[C@@H](C(=O)[C@@H](C)[C@@H](O)[C@H](C)CCc1ccc(C)c(O)c1C(=O)O)[C@H]1O[C@](CC)([C@H]2CC[C@](O)(CC)[C@H](C)O2)C[C@@H]1C` [lasalocid, reference compound], in test [2] (25 ppm), the “effect on starch fermentation” value is given as “neither monensin or lasalocid had any effect”.
“Pyridine, 2,2'-(2-imidazolidinyl- idene)di-, compound with CuCl2 (1/1) [Formula II Compound]”: the acetate production result in test [3] (75 ppm) is “depressed acetate production compared to the negative control, and was comparable to monensin”. In test [3] (75 ppm, average), the “CH4 (%), Average” value was 11.0% and the “H2 (%), Average” value amounted to 0.0%. Besides, the “CH4, Percent Change” value in test [3] (75 ppm, change versus control average, 1440 min) is -6.0%. Besides, in test [3] (75 ppm, mean of duplicate), the “Acetate, Mean” value stood at 8.0 Mu Moles/ml; the “Butyrate, Mean” value was found to be 9.6 Mu Moles/ml; the “Propionic, Mean” value was 14.8 Mu Moles/ml; the “Total, Mean” value is 32.4 Mu Moles/ml. Also, in test [3] (75 ppm, single runs), the “CH4 (%)” value was 11.2% and 10.8%; the “H2 (%)” value stood at 0.0%. In test [3] (setting [5]), the Acetate was 6.8 Mu Moles/ml and 9.2 Mu Moles/ml; the Butyrate was 8.9 Mu Moles/ml and 10.2 Mu Moles/ml; the Propionic is 14.6 Mu Moles/ml and 15.0 Mu Moles/ml; the Total was 38.4 Mu Moles/ml and 34.4 Mu Moles/ml. Besides, the “activity in rumen fluid batch culture tests” value in test [3] (compared with iron and nickel salts of Formula I) is on record as “best activity”. Besides, the propionate production result in test [3] (expected in tests to establish optimum dosage level) is listed as “favorable shift to increased propionate production”. Also, the “activity in chick rye diet test” value in test [4] was “promising activity”.
